Reference: paper PMC10051811, “Plasma and Cerebrospinal Fluid Concentrations of Micafungin Administered at High Doses in Critically Ill Infants with Systemic Candidiasis: A Pooled Analysis of Two Studies” (Pharmaceuticals, 2023)
Like-named read-outs stand apart in the source and are kept apart here. *1 amine or outer side, *2 acyl side, *3 side chain or, on linkers, in order; H or OH if unused. Where a SMILES comes first, the peptide text is derived from it. Bridges are numbered along the chain shown (N, C = ends). [ ]: non-standard residue; d: D form. The star is where a group is joined. hTyr(3S-OH,4S-OH,3'-OSO3H) = N[C@H](C(=O)O)[C@H](O)[C@@H](O)c1ccc(O)c(OS(=O)(=O)O)c1; Orn(4R-OH,5R-OH) = O=C([C@H](C[C@@H](O)[C@@H](O)N[*:3])N[*:1])[*:2]; Pro(3S-OH,4S-Me) = C[C@H]1CN[C@H](C(=O)O)[C@H]1O; X1 = CCCCCOc1ccc(-c2cc(-c3ccc(C(=O)*)cc3)no2)cc1; Gln(3R-OH) = NC(=O)C[C@@H](O)[C@H](N)C(=O)O; Hyp = O=C(O)[C@@H]1C[C@@H](O)CN1

Experiments:
invasive candidiasis = experiment: Microbiological and clinical success of micafungin therapy in infants with invasive candidiasis; assay type: in vivo, human; conditions: 8-15 mg/kg/day iv
Protocol: For this pooled analysis, we included data from a total of fifty-three neonates enrolled, aged ≤180 days (from the gestational age corrected at 37 weeks), affected with proven or suspected systemic candidiasis, whereby 3 of them had meningitis, who were treated for at least 14 days with micafungin (Mycamine®) at a dosage ranging from 8 to 15 mg/kg/day intravenously.
(§1) The dosage was formulated as a 2 mg/mL solution in 0.9% saline solution and administered intravenously over 1 h once daily. Infants who died within the first 48 h and those with acute or chronic hepatic diseases and/or known hypersensitivity to echinocandins were excluded. Each study with specific inclusion/exclusion criteria and definitions has been described in detail elsewhere.

rats = rats treated for 3 months or more, dose of 150 mg/day (eight times the highest recommended human dose); cited from earlier work
[1] = Micafungin plasma pharmacokinetics in neonates and young infants (HPLC); assay type: in vivo, human; conditions: for level at 1 h: read-out: Plasma values after 1 h; for level at 8 h: read-out: Plasma values after 8 h; for level at -1 h: read-out: Plasma values before infusion
Protocol: as §1
(§2) Micafungin plasma and CSF concentrations were measured 1 h before and 1, 2, and 8 h after the end of the infusion. Sampling overlapped with those required for the clinical monitoring of these critical children. Blood samples were collected via heel puncture, using 0.3 mL capillary microtubes with EDTA, between Days 3 and 10 of micafungin therapy. Five minutes prior to sampling, the heel was warmed with a hot compress (40 °C), and puncture was performed using a Gentleheel incision device (Cardinal Health, Dublin, OH, USA) at alternate sites per timepoint. Blood picked up was centrifuged at 3000× g, and the plasma residue was stored at 4 °C until analyzed within 6 h or frozen at −20 °C and analyzed within 7 days, as previously reported. Drug concentrations were measured via high-performance liquid chromatography (HPLC). An HPLC method with a diode array detector was validated to fine-tune the measurement on small amounts of plasma (0.3 mL whole blood).
Moreover, we assessed the optimal dosage to obtain systemic drug exposure equivalent to that considered to be effective in adult patients. Systemic drug exposure was assessed via the area under the curve for 24 h (AUC0–24), the plasma clearance (CL), and the half-life. Results were stratified according to chronological age.

[2] = ref 1 (Yanni et al.), cited from earlier work
Protocol: Yanni et al. observed an increased clearance of micafungin in infants and children: 40–80 mL/h/kg in premature infants and 20 mL/h/kg in children >4 months of age.

[3] = rabbit model of neonatal HCME; highest concentrations within meninges and choroid; ref 2 (Hope et al.); cited from earlier work
Source text: In extremely low-birth-weight infants (<1 kg at birth) with invasive candidiasis, the probability of the central nervous system involvement during infection varies from 45% to 63% of cases. Micafungin concentration values in CSF are difficult to obtain if an external shunt has not been placed previously. Moreover, interpreting these values in vivo is not easy, considering that the fungal involvement of the central nervous system in neonatal age is typically hematogenous Candida meningoencephalitis (HCME). Hope et al. studied the pharmacokinetics and pharmacodynamics of micafungin in a r ...

[4] = Micafungin concentrations in cerebrospinal fluid of infants with Candida meningitis (HPLC); assay type: in vivo; conditions: human, iv; for Kp at 1 h / Kp at 8 h / Kp: CSF (ratio to plasma); for Kp at 1 h: read-out: CSF/plasma ratio after 1 h; for Kp at 8 h: read-out: CSF/plasma ratio after 8 h; for Kp: read-out: CSF/plasma ratio before infusion; for level at 1 h / level at 8 h / level at -1 h: cerebrospinal fluid, HPLC; for level at 1 h: read-out: CSF values after 1 h; for level at 8 h: read-out: CSF values after 8 h; for level at -1 h: read-out: CSF values before infusion
Protocol: as §2, with “blood). […]” for “blood).”

[5] = cited from earlier work
Source text: This mechanism of action explains their characteristics of high specificity, even against resistant species of Candida. Micafungin is primarily eliminated via biliary excretion (90%), while the route of elimination via the kidney appears to be of minor importance in humans. Micafungin is bound to plasma proteins up to 99.5%. The binding to plasma proteins seems to be a ...

[6] = human, iv, 7 mg/kg/day, Patient 1, dose 7 mg/kg/day iv, HPLC
[7] = human, iv, 8 mg/kg/day, Patient 3, dose 8 mg/kg/day iv, HPLC
[8] = human, iv, 10 mg/kg/day, Patient 1, dose 10 mg/kg/day iv, HPLC
[9] = human, iv, 10 mg/kg/day, Patient 2, dose 10 mg/kg/day iv, HPLC
[10] = human, iv, 15 mg/kg/day, Patient 2, dose 15 mg/kg/day iv, HPLC
[11] = 7 mg/kg/day, Patient 1, dose 7 mg/kg/day iv
[12] = 8 mg/kg/day, Patient 3, dose 8 mg/kg/day iv
[13] = 10 mg/kg/day, Patient 1, dose 10 mg/kg/day iv
[14] = 10 mg/kg/day, Patient 2, dose 10 mg/kg/day iv
[15] = 15 mg/kg/day, Patient 2, dose 15 mg/kg/day iv

CCCCCOc1ccc(-c2cc(-c3ccc(C(=O)N[C@H]4C[C@@H](O)[C@@H](O)NC(=O)[C@@H]5[C@@H](O)[C@@H](C)CN5C(=O)[C@H]([C@H](O)CC(N)=O)NC(=O)[C@H]([C@H](O)[C@@H](O)c5ccc(O)c(OS(=O)(=O)O)c5)NC(=O)[C@@H]5C[C@@H](O)CN5C(=O)[C@H]([C@@H](C)O)NC4=O)cc3)no2)cc1 [micafungin] (X1-[Orn(4R-OH,5R-OH)]T[Hyp][hTyr(3S-OH,4S-OH,3'-OSO3H)][Gln(3R-OH)][Pro(3S-OH,4S-Me)]; lactam 1-C)
Clinical recovery (invasive candidiasis; infants with systemic candidiasis): all infants clinically recovered | Microbiological success of the therapy (invasive candidiasis; subjects with invasive candidiasis, mean treatment duration 16.7 days, 95% CI = 51.2–97.9): 83.3% | Hepatotoxicity finding in rats (rats): development of hepatocellular tumors | half-life ([1]; age 0 to ≤28 days (n = 16), 8-15 mg/kg/day iv, mean ± SD, SD): 13.5 ± 7.6 h | Clearance/weight ([1]; age >28 days ≤120 days (n = 23), 8-15 mg/kg/day iv, mean ± SD, SD): 0.6 ± 0.167 mL/min/kg | level at 1 h [1, 6]: 15600 ng/mL | level at 8 h [1, 6]: 8900 ng/mL | level at -1 h [1, 6]: 2900 ng/mL | level at 1 h [1, 7]: 27000 ng/mL | level at 8 h [1, 7]: 16800 ng/mL | level at -1 h [1, 7]: 9120 ng/mL | level at 1 h [1, 8]: 21700 ng/mL | level at 8 h [1, 8]: 6580 ng/mL | level at -1 h [1, 8]: 3200 ng/mL | level at 1 h [1, 9]: 17400 ng/mL | level at 8 h [1, 9]: 8900 ng/mL | level at -1 h [1, 9]: 6700 ng/mL | level at 1 h [1, 10]: 21900 ng/mL | level at 8 h [1, 10]: 12200 ng/mL | level at -1 h [1, 10]: 5800 ng/mL | clearance ([1]; human, iv, age 0 to ≤28 days (n = 16), 8-15 mg/kg/day iv over 1 h once daily, HPLC, mean ± SD, SD, read-out: Clearance (converted)): 1.2 mL/min | clearance ([1]; human, iv, age 0 to ≤28 days (n = 16), 8-15 mg/kg/day iv, mean ± SD, SD, read-out: Clearance/weight (converted)): 0.6 mL/min/kg | clearance ([1]; human, iv, age >28 days ≤120 days (n = 23), 8-15 mg/kg/day iv over 1 h once daily, HPLC, mean ± SD, SD, read-out: Clearance (converted)): 1.45 mL/min | half-life ([1]; human, iv, age >28 days ≤120 days (n = 23), 8-15 mg/kg/day iv, mean ± SD, SD, read-out: Half-life (converted)): 13.4 ± 4.3 h | clearance ([1]; human, iv, age >120 days (n = 13), 8-15 mg/kg/day iv over 1 h once daily, HPLC, mean ± SD, SD, read-out: Clearance (converted)): 1.82 mL/min | clearance ([1]; human, iv, age >120 days (n = 13), 8-15 mg/kg/day iv, mean ± SD, SD, read-out: Clearance/weight (converted)): 0.467 mL/min/kg | half-life ([1]; human, iv, age >120 days (n = 13), 8-15 mg/kg/day iv, mean ± SD, SD, read-out: Half-life (converted)): 14.4 ± 4.2 h | AUC(0-t) ([1]; human, iv, plasma AUC0–24, age 0 to ≤28 days (n = 16), 8-15 mg/kg/day iv, mean ± SD, SD): 259 ± 92.7 µg·h/mL | AUC(0-t) ([1]; human, iv, plasma AUC0–24, age >28 days ≤120 days (n = 23), 8-15 mg/kg/day iv, mean ± SD, SD): 237 ± 63.9 µg·h/mL | AUC(0-t) ([1]; human, iv, plasma AUC0–24, age >120 days (n = 13), 8-15 mg/kg/day iv, mean ± SD, SD): 346 ± 145 µg·h/mL | clearance ([2]; children >4 months of age): 0.333 mL/min/kg | clearance ([2]; premature infants): 0.667 to 1.33 mL/min/kg | Detection of micafungin within the CSF [3]: not reliably detected | Kp at 1 h [4, 11]: 0.01 | Kp at 8 h [4, 11]: 0.02 | Kp [4, 11]: 0.05 | Kp at 1 h [4, 12]: 0.06 | Kp at 8 h [4, 12]: 0.08 | Kp [4, 12]: 0.22 | Kp at 1 h [4, 13]: 0.06 | Kp at 8 h [4, 13]: 0.19 | Kp [4, 13]: 0.38 | Kp at 1 h [4, 14]: 0.03 | Kp at 8 h [4, 14]: 0.03 | Kp [4, 14]: 0.06 | Kp at 1 h [4, 15]: 0.05 | Kp at 8 h [4, 15]: 0.07 | Kp [4, 15]: 0.16 | level at 1 h [4, 11]: 150 ng/mL | level at 8 h [4, 11]: 150 ng/mL | level at -1 h [4, 11]: 150 ng/mL | level at 1 h [4, 12]: 1700 ng/mL | level at 8 h [4, 12]: 1300 ng/mL | level at -1 h [4, 12]: 2000 ng/mL | level at 1 h [4, 13]: 1230 ng/mL | level at 8 h [4, 13]: 1230 ng/mL | level at -1 h [4, 13]: 1230 ng/mL | level at 1 h [4, 14]: 500 ng/mL | level at 8 h [4, 14]: 300 ng/mL | level at -1 h [4, 14]: 400 ng/mL | level at 1 h [4, 15]: 1100 ng/mL | level at 8 h [4, 15]: 800 ng/mL | level at -1 h [4, 15]: 900 ng/mL | Bound to plasma proteins [5]: up to 99.5% | Elimination via biliary excretion ([5]; humans): 90%
